Laboratory results from publication PMC5676206, “Biosynthesis of methyl-proline containing griselimycins, natural products with anti-tuberculosis activity” (Chemical Science, 2017).

Tests used:
GriF = target: T1, GriF (Streptomyces muensis, UniProt A0A0E3URI1); experiment: LC-MS of product; type: biochemical; details: NAD+, ZnSO4; product cyclizes to the pyrroline
T1 construct: recombinant, produced in E. coli
T1 sequence (A0A0E3URI1 1-391): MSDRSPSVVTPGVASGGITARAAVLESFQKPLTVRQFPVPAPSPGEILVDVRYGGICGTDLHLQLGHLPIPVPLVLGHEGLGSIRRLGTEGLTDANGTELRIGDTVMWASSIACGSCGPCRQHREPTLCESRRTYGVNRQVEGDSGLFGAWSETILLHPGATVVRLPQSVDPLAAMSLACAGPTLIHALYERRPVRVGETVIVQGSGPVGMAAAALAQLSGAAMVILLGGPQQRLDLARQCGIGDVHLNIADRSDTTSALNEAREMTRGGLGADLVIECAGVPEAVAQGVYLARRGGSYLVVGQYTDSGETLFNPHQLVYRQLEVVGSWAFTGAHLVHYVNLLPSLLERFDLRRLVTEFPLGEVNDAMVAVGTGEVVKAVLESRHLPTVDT

GriE = target: T2, GriE (Streptomyces muensis, UniProt A0A0E3URV8); experiment: X-ray crystallography; type: binding
T2 construct: recombinant, produced in E. coli
T2 sequence (A0A0E3URV8 1-270): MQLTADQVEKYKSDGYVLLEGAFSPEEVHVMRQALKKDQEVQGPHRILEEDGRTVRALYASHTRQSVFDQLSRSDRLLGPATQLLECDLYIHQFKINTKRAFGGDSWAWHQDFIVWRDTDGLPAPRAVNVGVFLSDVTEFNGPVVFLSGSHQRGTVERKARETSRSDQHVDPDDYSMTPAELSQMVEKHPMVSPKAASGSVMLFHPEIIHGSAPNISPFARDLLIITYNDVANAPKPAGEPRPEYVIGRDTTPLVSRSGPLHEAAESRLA

[1] = co-crystallized with Mn2+, L-leucine and alpha-ketoglutarate, turned over in the crystal set-up, 1.53 Å

C[C@@H](CO)C[C@H](N)C(=O)O [(2S,4R)-5-hydroxyleucine]
LC-MS of product (GriF): incubation of recombinant GriF with 5-hydroxyleucine, ZnSO4 and NAD^+ was unstable
X-ray crystallography (GriE; [1]): electron density clearly confirms 5-hydroxyleucine to be the postulated (2S,4R)-diastereomer

CC(C)C[C@H](N)C(=O)O [L-leucine]
X-ray crystallography (GriE; co-crystallized with Co2+ in place of Fe2+ and alpha-ketoglutarate, 1.76 Å, active site, no direct metal contact): unambiguously revealed bound metal and both L-leucine and α-ketoglutarate

O=C(O)CCC(=O)O [succinate]
X-ray crystallography (GriE; [1]): succinate coordinates the metal with one carboxylate oxygen
